From ChEMBL document CHEMBL4118239, “Novel leucine ureido derivatives as aminopeptidase N inhibitors using click chemistry” (Bioorg Med Chem, 2018)
Active and inactive are the calls of the source. The rule behind the calls is not given here.

Columns and labels:
Aminopeptidase N [1] = molecular target: T1, Aminopeptidase N (Sus scrofa, UniProt P15145); test: Inhibition of APN in porcine kidney microsomes using L-Leu-pnitroanilide as substrate pretreated for 5 mins followed by substrate addition measured after 30 mins
T1 sequence (P15145 whole entry): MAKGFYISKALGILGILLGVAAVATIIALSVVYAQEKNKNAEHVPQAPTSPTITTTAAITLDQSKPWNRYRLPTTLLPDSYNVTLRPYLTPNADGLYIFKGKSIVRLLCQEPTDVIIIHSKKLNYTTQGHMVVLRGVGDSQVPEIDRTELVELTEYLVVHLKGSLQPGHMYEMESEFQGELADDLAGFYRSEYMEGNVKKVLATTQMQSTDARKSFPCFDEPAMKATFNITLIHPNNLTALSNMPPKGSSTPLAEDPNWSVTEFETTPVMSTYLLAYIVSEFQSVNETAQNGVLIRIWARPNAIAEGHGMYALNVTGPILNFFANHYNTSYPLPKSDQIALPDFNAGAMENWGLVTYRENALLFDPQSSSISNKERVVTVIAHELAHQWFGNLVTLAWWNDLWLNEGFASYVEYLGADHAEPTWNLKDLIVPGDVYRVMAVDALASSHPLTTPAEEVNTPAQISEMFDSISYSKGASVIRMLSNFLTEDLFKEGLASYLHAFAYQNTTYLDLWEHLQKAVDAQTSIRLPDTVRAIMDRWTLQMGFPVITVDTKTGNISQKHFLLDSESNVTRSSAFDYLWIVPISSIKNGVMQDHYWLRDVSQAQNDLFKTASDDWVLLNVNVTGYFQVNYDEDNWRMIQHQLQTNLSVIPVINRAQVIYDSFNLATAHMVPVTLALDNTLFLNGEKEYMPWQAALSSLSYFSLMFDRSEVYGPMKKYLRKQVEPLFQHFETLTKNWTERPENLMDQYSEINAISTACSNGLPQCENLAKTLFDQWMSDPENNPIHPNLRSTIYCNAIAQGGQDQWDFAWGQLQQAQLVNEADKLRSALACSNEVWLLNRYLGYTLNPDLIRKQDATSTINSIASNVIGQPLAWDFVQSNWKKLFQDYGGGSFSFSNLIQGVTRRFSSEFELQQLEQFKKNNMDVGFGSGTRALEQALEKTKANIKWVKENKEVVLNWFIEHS

Aminopeptidase N [2] = molecular target: T2, Aminopeptidase N (Homo sapiens, UniProt P15144); test: Inhibition of APN in human ES2 cells using L-Leu-pnitroanilide as substrate pretreated for 5 mins followed by substrate addition measured after 1 hr; type: cell-based
T2 sequence (P15144 whole entry): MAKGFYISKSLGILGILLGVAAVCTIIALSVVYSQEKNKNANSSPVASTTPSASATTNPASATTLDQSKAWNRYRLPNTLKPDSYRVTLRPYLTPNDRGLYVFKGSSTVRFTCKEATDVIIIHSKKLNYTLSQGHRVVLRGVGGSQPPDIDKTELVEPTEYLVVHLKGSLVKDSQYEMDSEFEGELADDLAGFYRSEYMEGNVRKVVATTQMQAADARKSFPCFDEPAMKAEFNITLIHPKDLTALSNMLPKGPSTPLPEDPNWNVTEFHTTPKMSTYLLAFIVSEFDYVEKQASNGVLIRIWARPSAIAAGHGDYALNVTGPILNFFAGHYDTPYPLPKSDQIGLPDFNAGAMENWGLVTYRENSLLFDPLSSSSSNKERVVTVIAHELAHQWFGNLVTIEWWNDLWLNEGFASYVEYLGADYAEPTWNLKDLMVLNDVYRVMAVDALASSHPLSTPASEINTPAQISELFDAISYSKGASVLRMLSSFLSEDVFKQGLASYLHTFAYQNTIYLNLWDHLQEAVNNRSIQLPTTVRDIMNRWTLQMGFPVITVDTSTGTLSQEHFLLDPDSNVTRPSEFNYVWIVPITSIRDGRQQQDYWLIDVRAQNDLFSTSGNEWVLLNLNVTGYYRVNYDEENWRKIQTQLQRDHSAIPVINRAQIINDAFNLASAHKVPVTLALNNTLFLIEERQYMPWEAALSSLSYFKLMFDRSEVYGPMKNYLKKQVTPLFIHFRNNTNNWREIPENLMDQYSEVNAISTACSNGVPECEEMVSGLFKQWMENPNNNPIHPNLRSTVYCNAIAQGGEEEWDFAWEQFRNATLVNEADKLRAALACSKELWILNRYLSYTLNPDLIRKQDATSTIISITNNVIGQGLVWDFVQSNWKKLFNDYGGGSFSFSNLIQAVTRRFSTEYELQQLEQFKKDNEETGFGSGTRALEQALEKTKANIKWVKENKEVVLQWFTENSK

Aminopeptidase N [3] = molecular target: T2, Aminopeptidase N; test: Inhibition of APN in human PLC/PRF/5 cells using L-Leu-pnitroanilide as substrate pretreated for 5 mins followed by substrate addition measured after 1 hr; type: cell-based
H22 = test: Anti-metastatic activity against mouse H22 cells implanted in Kunming mouse assessed as reduction in number of metastatic nodes at 60 mg/kg, ip administered once daily for 12 days measured on day 13 by bouin's staining based assay relative to control; type: functional; set-up: scale not given: the % may be the effect or the level left
HUVEC [4] = test: Antiangiogenic activity in HUVEC assessed as inhibition of capillary-like tube formation at 100 uM after 4 hrs by matrigel-based assay; type: functional, cell-based; conditions: Homo sapiens
Thoracic aorta [5] = test: Antiangiogenic activity in Sprague-Dawley rat thoracic aorta ring assessed as reduction in micro-vessel growth at 100 uM supplemented with fresh medium containing compound every 3 for 9 days measured on day 9 by matrigel-based inverted microscopic analysis; type: functional, tissue-based
MDA-MB-231 = test: Antiproliferative activity against human MDA-MB-231 cells after 48 hrs by MTT assay; conditions: MDA-MB-231, 48 h
PC-3 = test: cells; conditions: Homo sapiens, PC-3, 48 h
Mus musculus [6] = test: Toxicity in Kunming mouse implanted with mouse H22 cells assessed as effect on spleen at 60 mg/kg, ip administered once daily for 12 days; type: organism-based; conditions: in vivo, 288 h
A549 = test: cells; conditions: Homo sapiens, A549, 48 h
K562 = test: cells; conditions: Homo sapiens, K562, 48 h
Mus musculus [7] = test: Toxicity in Kunming mouse implanted with mouse H22 cells assessed as body weight loss at 60 mg/kg, ip administered once daily for 12 days measured every 2 days during compound dosing; type: organism-based; conditions: in vivo
HCT-116 = test: cells; conditions: Homo sapiens, HCT-116, 48 h
cells = conditions: Homo sapiens, ES-2, 48 h
Description: Antiproliferative activity against human ES2 cells after 48 hrs by MTT assay

PLC = test: cells; conditions: Homo sapiens, 48 h
Description: Antiproliferative activity against human PLC cells after 48 hrs by MTT assay

HUVEC [8] = test: Antiangiogenic activity in HUVEC assessed as inhibition of capillary-like tube formation after 4 hrs by matrigel-based assay; type: functional, cell-based; conditions: Homo sapiens
Thoracic aorta [9] = test: Antiangiogenic activity in Sprague-Dawley rat thoracic aorta ring assessed as reduction in micro-vessel growth supplemented with fresh medium containing compound every 3 for 9 days measured on day 9 by matrigel-based inverted microscopic analysis; type: functional, tissue-based
U-937 = test: cells; conditions: Homo sapiens, U-937, 48 h
Description: Antiproliferative activity against human U937 cells after 48 hrs by MTT assay

Mus musculus [10] = test: Hepatotoxicity in Kunming mouse implanted with mouse H22 cells at 60 mg/kg, ip administered once daily for 12 days; type: toxicity, organism-based; conditions: in vivo, 288 h

IC50 (Aminopeptidase N [1]) [µM]	Compound	other results
6.9	CC(C)C[C@H](NC(=O)NCc1cn(Cc2ccc(Cl)cc2)nn1)C(=O)NO	
0.39	Cc1cccc(C)c1Cn1cc(CNC(=O)N[C@@H](CC(C)C)C(=O)NO)nn1	
0.55	COc1ccccc1C(C)n1cc(CNC(=O)N[C@@H](CC(C)C)C(=O)NO)nn1 (stereo partly drawn)	IC50 (Aminopeptidase N [2]): 4.8 µM; IC50 (Aminopeptidase N [3]): 12.3 µM
3.5	CC(C)C[C@H](NC(=O)NCc1cn(Cc2cccc(Br)c2)nn1)C(=O)NO	
1	CC(C)C[C@H](NC(=O)NCc1cn(Cc2ccc([N+](=O)[O-])cc2)nn1)C(=O)NO	
0.65	COc1ccccc1Cn1cc(CNC(=O)N[C@@H](CC(C)C)C(=O)NO)nn1	IC50 (Aminopeptidase N [2]): 6.5 µM; IC50 (Aminopeptidase N [3]): 15.3 µM
	CC(C)C[C@H](NC(=O)[C@@H](O)[C@H](N)Cc1ccccc1)C(=O)O [UBENIMEX]	Activity (H22): 64%; inhibition (HUVEC [4]): Active; Activity (Thoracic aorta [5]): Active
0.91	COc1cccc(Cn2cc(CNC(=O)N[C@@H](CC(C)C)C(=O)NO)nn2)c1	
5.5	CC(C)C[C@H](NC(=O)NCc1cn(Cc2ccc(Cl)c(Cl)c2)nn1)C(=O)NO	
0.47	COc1cccc(OC)c1Cn1cc(CNC(=O)N[C@@H](CC(C)C)C(=O)NO)nn1	
0.67	CC(C)C[C@H](NC(=O)NCc1cn(Cc2ccccc2Cl)nn1)C(=O)NO	
2.1	CC(C)C[C@H](NC(=O)NCc1cn(Cc2ccccc2)nn1)C(=O)NO	
1.4	CC(C)C[C@H](NC(=O)NCc1cn(Cc2ccc(C#N)cc2)nn1)C(=O)NO	
3.6	Cc1ccc(Cn2cc(CNC(=O)N[C@@H](CC(C)C)C(=O)NO)nn2)cc1	
0.089	CC(C)C[C@H](NC(=O)NCc1cn(Cc2ccccc2OCc2ccccc2)nn1)C(=O)NO	Activity (H22): 71%; IC50 (MDA-MB-231): 72.5 µM; IC50 (PC-3): 119 µM; Activity (Mus musculus [6]): Non-Toxic; IC50 (A549): 90 µM; IC50 (K562): 85 µM; Activity (Mus musculus [7]): Non-Toxic; IC50 (HCT-116): 81.2 µM; IC50 (cells): 105 µM; IC50 (Aminopeptidase N [2]): 0.74 µM; IC50 (PLC): 92.8 µM; IC50 (Aminopeptidase N [3]): 1.3 µM; inhibition (HUVEC [8]): Dose-dependent effect; Activity (Thoracic aorta [9]): Dose-dependent effect; IC50 (U-937): 68.4 µM; Activity (Mus musculus [10]): Non-Toxic
3.1	CC(C)C[C@H](NC(=O)NCc1cn(Cc2cccc(Cl)c2)nn1)C(=O)NO	
1.5	CCOc1ccc(Cn2cc(CNC(=O)N[C@@H](CC(C)C)C(=O)NO)nn2)cc1	
0.76	Cc1ccccc1Cn1cc(CNC(=O)N[C@@H](CC(C)C)C(=O)NO)nn1	IC50 (Aminopeptidase N [2]): 6.9 µM; IC50 (Aminopeptidase N [3]): 20.6 µM
0.44	CCOc1ccccc1Cn1cc(CNC(=O)N[C@@H](CC(C)C)C(=O)NO)nn1	IC50 (Aminopeptidase N [2]): 2.1 µM; IC50 (Aminopeptidase N [3]): 5 µM
0.82	CCOc1cccc(Cn2cc(CNC(=O)N[C@@H](CC(C)C)C(=O)NO)nn2)c1	
0.68	CC(C)C[C@H](NC(=O)NCc1cn(Cc2ccccc2N)nn1)C(=O)NO	

IC50 (Aminopeptidase N [1]) [µM]	Compound	other results
3.9	CC(C)C[C@H](NC(=O)NCc1cn(Cc2ccc3ccccc3c2)nn1)C(=O)NO	
2.2	CC(C)C[C@H](NC(=O)NCc1cn(C/C=C/c2ccccc2)nn1)C(=O)NO	
3.4	CC(C)C[C@H](NC(=O)NCc1cn(Cc2ccccc2[N+](=O)[O-])nn1)C(=O)NO	
1.4	COc1cc(Cn2cc(CNC(=O)N[C@@H](CC(C)C)C(=O)NO)nn2)cc(OC)c1OC	
1.4	CC(C)C[C@H](NC(=O)NCc1cn(Cc2cccc3ccccc23)nn1)C(=O)NO	
1.9	COc1ccc(Cn2cc(CNC(=O)N[C@@H](CC(C)C)C(=O)NO)nn2)cc1	
2.3	CC(C)C[C@H](NC(=O)NCc1cn(C(c2ccccc2)c2ccccc2)nn1)C(=O)NO	
7.8	CC(C)C[C@H](NC(=O)NCc1cn(Cc2cccc(C#N)c2)nn1)C(=O)NO	
0.58	CC(C)C[C@H](NC(=O)NCc1cn(Cc2c(Cl)cccc2Cl)nn1)C(=O)NO	
2.6	COc1ccc(Cn2cc(CNC(=O)N[C@@H](CC(C)C)C(=O)NO)nn2)cc1OC	
7.8	CC(C)C[C@H](NC(=O)NCc1cn(Cc2ccc(Br)cc2)nn1)C(=O)NO	
2.2	Cc1cccc(Cn2cc(CNC(=O)N[C@@H](CC(C)C)C(=O)NO)nn2)c1	
0.24	CC(C)C[C@H](NC(=O)NCc1cn(Cc2cccc(OCc3ccccc3)c2)nn1)C(=O)NO	IC50 (MDA-MB-231): 72.6 µM; IC50 (PC-3): 123 µM; IC50 (A549): 128 µM; IC50 (K562): 99.8 µM; IC50 (HCT-116): 130 µM; IC50 (cells): 108 µM; IC50 (Aminopeptidase N [2]): 0.87 µM; IC50 (PLC): 112 µM; IC50 (Aminopeptidase N [3]): 4.9 µM; IC50 (U-937): 70.3 µM
11.3	O=C(NCc1cn(Cc2ccc(Cl)cc2)nn1)N[C@H](C(=O)NO)c1ccccc1	
1.7	CC(C)C[C@H](NC(=O)NCc1cn(Cc2cccc([N+](=O)[O-])c2)nn1)C(=O)NO	
3.6	CC(C)C[C@H](NC(=O)NCc1cn(CCc2ccccc2)nn1)C(=O)NO	
0.88	CC(C)C[C@H](NC(=O)NCc1cn(Cc2ccccc2Br)nn1)C(=O)NO	
13.6	CC[C@@H](C)[C@H](NC(=O)NCc1cn(Cc2ccccc2)nn1)C(=O)NO	
1.9	CC(C)C[C@H](NC(=O)NCc1cn(C(C)c2ccccc2)nn1)C(=O)NO (stereo partly drawn)	
2.2	CC(C)C[C@H](NC(=O)NCc1cn(Cc2cccnc2)nn1)C(=O)NO	
3.7	CC(C)C[C@H](NC(=O)NCc1cn(Cc2cccc(N)c2)nn1)C(=O)NO	
